Experimental data as given in ChEMBL document CHEMBL5030535, “Conjugates Derived from Lapatinib Derivatives with Cancer Cell Stemness Inhibitors Effectively Reversed Drug Resistance in Triple-Negative Breast Cancer” (J Med Chem, 2021).
pIC50: −log10 of the molar value. Active and inactive are the calls of the source. The calls are words filed in the database; no cut-off is given here.

Tests used:
[1] = test system: MCF7; experiment: Antiproliferative activity against human MCF7 cells assessed as inhibition of cell growth measured after 72 hrs by MTT assay; type: functional, cell-based; settings: MCF7, 72 h
[2] = test system: MDA-MB-231; experiment: Antiproliferative activity against human drug tolerant MDA-MB-231/lapatinib cells assessed as inhibition of cell growth in measured after 72 hrs by MTT assay; type: functional, cell-based; settings: MDA-MB-231, 72 h
[3] = Resistant factor, ratio of IC50 for antiproliferative activity against drug-tolerant human MDA-MB-231 cells to IC50 for human MDA-MB-231 cells; type: functional
[4] = test system: MDA-MB-231; experiment: Antiproliferative activity against human MDA-MB-231 cells assessed as inhibition of cell growth measured after 72 hrs by MTT assay; type: functional, cell-based; settings: MDA-MB-231, 72 h
[5] = test system: HUVEC; experiment: Antiproliferative activity against human HUVEC cells assessed as inhibition of cell growth in measured after 72 hrs by MTT assay; type: cell-based
[6] = test system: MDA-MB-231; experiment: Antiproliferative activity against drug-tolerant human MDA-MB-231/lapatinib cells assessed as CD44-positive cells measured after 24 hrs by MTT assay; type: functional, cell-based; settings: MDA-MB-231, 24 h
[7] = test system: MDA-MB-231; experiment: Inhibition of Wnt/beta-Catenin signaling in drug-tolerant human MDA-MB-231/lapatinib cells assessed as reduction in beta-catenin level at 20 uM incubated for 24 hrs by Western blot analysis
[8] = test system: MDA-MB-231; experiment: Inhibition of Wnt/beta-Catenin signaling in drug-tolerant human MDA-MB-231/lapatinib cells assessed as reduction in p-GSK3beta level at 20 uM incubated for 24 hrs by Western blot analysis
[9] = test system: MDA-MB-231; experiment: Inhibition of cell migration in human drug-tolerant MDA-MB-231/lapatinib cells at 20 uM; type: functional
[10] = test system: MDA-MB-231; experiment: Antiproliferative activity against drug-tolerant human MDA-MB-231/lapatinib cells assessed as CD44+/CD24- cells measured at 20 uM after 24 hrs by MTT assay; type: functional

| Compound | pIC50 [1] | pIC50 [4] | pIC50 [2] | Ratio IC50 [3] | pIC50 [5] | pIC50 [6] | inhibition [7] | inhibition [8] | inhibition at 20 µM [9] [%] | inhibition at 20 µM [10] [%] |
| --- | --- | --- | --- | --- | --- | --- | --- | --- | --- | --- |
| OCCN1CCN(CCCN2c3ccccc3Sc3ccc(C(F)(F)F)cc32)CC1 [FLUPHENAZINE] | 4.61 | 4.78 | 4.73 | 0.86 | 4.42 |  |  |  |  |  |
| CS(=O)(=O)CCN(Cc1ccc(-c2ccc3ncnc(Nc4ccc(OCc5cccc(F)c5)c(Cl)c4)c3c2)o1)C(=O)CCCC(=O)OCCN1CCN(CCCN2c3ccccc3Sc3ccc(Cl)cc32)CC1 | 5.13 | 5.35 | 5.24 | 1.27 | 4.00 |  |  |  |  |  |

Now from value to compound, other results behind:

| pIC50 [1] | pIC50 [4] | Compound | pIC50 [2] | Ratio IC50 [3] | pIC50 [5] | pIC50 [6] | inhibition [7] | inhibition [8] | inhibition at 20 µM [9] [%] | inhibition at 20 µM [10] [%] |
| --- | --- | --- | --- | --- | --- | --- | --- | --- | --- | --- |
| 5.40 | 5.44 | CC(OC(=O)CCC(=O)N(CCS(C)(=O)=O)Cc1ccc(-c2ccc3ncnc(Nc4ccc(OCc5cccc(F)c5)c(Cl)c4)c3c2)o1)c1cc2c(o1)C(=O)c1ccccc1C2=O (centres undefined) | 5.24 | 1.62 | 4.25 |  |  |  |  |  |
| 5.04 | 5.18 | CS(=O)(=O)CCN(Cc1ccc(-c2ccc3ncnc(Nc4ccc(OCc5cccc(F)c5)c(Cl)c4)c3c2)o1)C(=O)CCCC(=O)OCCN1CCN(CCCN2c3ccccc3Sc3ccc(C(F)(F)F)cc32)CC1 | 5.15 | 1.08 | 4.36 |  |  |  |  |  |
| 4.90 | 5.23 | CS(=O)(=O)CCNCc1ccc(-c2ccc3ncnc(Nc4ccc(OCc5cccc(F)c5)c(Cl)c4)c3c2)o1 [LAPATINIB] | 4.53 |  | 4.33 | 4.51 | Active | Active | 52.6 | 15.7 |
